Source: ChEMBL document CHEMBL1135015, “Silanediol-based inhibitor of thermolysin” (Bioorg Med Chem Lett, 2002)

Target: T1, Thermolysin (Bacillus thermoproteolyticus, UniProt P00800)
T1 sequence (P00800 whole entry): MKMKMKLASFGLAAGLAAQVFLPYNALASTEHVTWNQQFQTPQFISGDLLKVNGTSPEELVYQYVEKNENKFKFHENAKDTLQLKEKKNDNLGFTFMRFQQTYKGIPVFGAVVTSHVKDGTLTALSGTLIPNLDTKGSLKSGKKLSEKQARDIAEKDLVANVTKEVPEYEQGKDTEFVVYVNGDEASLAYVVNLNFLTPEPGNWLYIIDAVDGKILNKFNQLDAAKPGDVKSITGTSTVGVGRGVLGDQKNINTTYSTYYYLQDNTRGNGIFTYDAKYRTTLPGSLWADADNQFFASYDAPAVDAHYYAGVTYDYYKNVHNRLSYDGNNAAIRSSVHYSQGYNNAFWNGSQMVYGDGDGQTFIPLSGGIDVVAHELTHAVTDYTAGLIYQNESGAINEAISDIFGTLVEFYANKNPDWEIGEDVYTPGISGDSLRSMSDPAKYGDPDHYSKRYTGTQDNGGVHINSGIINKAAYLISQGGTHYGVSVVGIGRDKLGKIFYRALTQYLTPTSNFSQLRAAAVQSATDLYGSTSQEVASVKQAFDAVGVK
Assay: Competitive inhibition of thermolysin evaluated using the substrate FAGLA (Sigma); Competitive binding observed

| Compound | Ki [nM] |
| --- | --- |
| CC(C)C[C@H](CP(=O)(O)CNC(=O)OCc1ccccc1)C(=O)N[C@@H](CC(C)C)C(=O)O | 11 |
| CC(C)C[C@@H](CO)C[Si](CN)(c1ccccc1)c1ccccc1 | 41 |
| CC(C)C[C@H](C[Si](O)(O)CNC(=O)CCc1ccccc1)C(=O)N[C@@H](CC(C)C)C(=O)O | 41 |
